The assay has as its system SH-SY5Y cells treated with Aβ42 oligomers. In words: Anti-Aβ42 neurotoxicity assay. It is filed as cell-based, human. Here is the method:
Human neuroblastoma SH-SY5Y cell line (Sigma-Aldrich, Saint Louis, Mo.) was cultured in DMEM/F12 (v/v 1:1) media supplemented with 2 mM glutamine, 10% heat-inactivated fetal bovine serum (FBS) and 1% antibiotics including penicillin and streptomycin. After reaching 70-80% confluence, cells were then subcultured on poly-L-lysine plates with 10 μM retinoic acid in a reduced serum media (1% FBS) to promote neuronal maturation and differentiation as described (Agholme, et al. (2010) J. Alzheimer's Dis. 20: 1069-1082). Cell cultures were incubated at 37° C. in a fully humidified atmosphere containing 5% CO2.
The toxic oligomers of Aβ42 were prepared as described (Liang, et al. (2016) ACS Chem. Neurosci. 7:912-923). Briefly, lyophilized Aβ42 peptide was dissolved in hexafluoroisopropanol, dried under vacuum, and stored at −20° C. Immediately prior to use, the peptide residue was reconstituted in DMEM/F12 media to make a stock solution at 0.1 mM and incubated at 4° C. for 24 hours to form diffusible oligomers. Aβ42 oligomers at a final concentration of 10 μM were assayed for cell viability.
SH-SY5Y cells were seeded at a density of 3×10^5 cells/mL in a 96-well plate in DMEM/F12 media containing 10 μM retinoic acid and 1% FBS to suppress cell proliferation. Cells were incubated under regular culture conditions for attachment. After 24 hours of plating, the cells were pretreated with different concentrations of test samples or the 0.2% DMSO as a vehicle control for 1 hour and then co-incubated with 10 μM Aβ42 for 72 hours. After the experimental treatment, the cells were subject to a […]® 96 AQueous One Solution Cell Proliferation […] Assay according to the manufacturer's instruction. […] Each data point was collected in triplicate of two independent experiments.

Take `O=c1cc(-c2ccc(O)c(O)c2)oc2cc(O)c([C@@H]3O[C@H](CO)[C@@H](O)[C@H](O)[C@H]3O)c(O)c12` [Compound 1, isoorientin]: for the setting “Homo sapiens, SH-SY5Y, 1 hour pretreatment, 10 μM Aβ42, 72 hours, read-out: neuroprotective potency EC50”, the EC50 turned out to be 47 µM. Moreover, the “effective dose, morphological protection from Aβ42 intoxication” value (morphological observations) came out at 200 μM.

The record behind these values is patent US11254700B2, “GSK-3β inhibitors and use thereof in methods of treatment” (UNIVERSITY OF HAWAII, priority 2017, dated 2022).
